From the supplement of paper PMC10307832 come the findings set out here.

What all share (test): relative viability (nuclei count vs DMSO), 5 days (fraction); higher = more cells survive
Compound in experiment [1]: C[C@H]([C@@H](C(=O)N)NC(=O)[C@@H]1CSSC[C@@H](C(=O)N[C@H](C(=O)N[C@@H](C(=O)N[C@H](C(=O)N1)CCCCN)CC2=CNC3=CC=CC=C32)CC4=CC=C(C=C4)O)NC(=O)[C@@H](CC5=CC=CC=C5)N)O [CAP-232] + Cc1cc(Nc2cc(N3CCN(C)CC3)nc(Sc3ccc(NC(=O)C4CC4)cc3)n2)n[nH]1 [Tozasertib] (partner 0.1 µM)
The gist of the method: (§1)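 Nuclei were stained with Hoechst during a one-step fixation (final 0.05% Triton X-100, 1% formaldehyde, 1 ug/ml Hoechst) carried out 5 days after dosing, then counted on 4× images. The cells, lung cancer lines in 1536-well plates, had been dosed by pin tool the day after seeding with one drug alone or a fixed anchor-drug dose plus five library-drug doses (not always all listed) in √10 steps. Relative viability is the nuclei count in treated wells divided by that in vehicle wells, and each value is the median of duplicate plates.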

Compound in experiment [2]: C[C@H]([C@@H](C(=O)N)NC(=O)[C@@H]1CSSC[C@@H](C(=O)N[C@H](C(=O)N[C@@H](C(=O)N[C@H](C(=O)N1)CCCCN)CC2=CNC3=CC=CC=C32)CC4=CC=C(C=C4)O)NC(=O)[C@@H](CC5=CC=CC=C5)N)O [CAP-232] + COc1cccc2cc(-c3nc([C@H]4CC[C@H](C(=O)O)CC4)n4ncnc(N)c34)[nH]c12 [OSI-027] (partner 0.5 µM)
Summed up: as §1

Compound in experiment [3]: C[C@H]([C@@H](C(=O)N)NC(=O)[C@@H]1CSSC[C@@H](C(=O)N[C@H](C(=O)N[C@@H](C(=O)N[C@H](C(=O)N1)CCCCN)CC2=CNC3=CC=CC=C32)CC4=CC=C(C=C4)O)NC(=O)[C@@H](CC5=CC=CC=C5)N)O [CAP-232] + Nc1nc2[nH]cc(CCc3ccc(C(=O)N[C@@H](CCC(=O)O)C(=O)O)cc3)c2c(=O)[nH]1 [Pemetrexed] (partner 0.2 µM)
Summed up: as §1

Compound in experiment [4]: C[C@H]([C@@H](C(=O)N)NC(=O)[C@@H]1CSSC[C@@H](C(=O)N[C@H](C(=O)N[C@@H](C(=O)N[C@H](C(=O)N1)CCCCN)CC2=CNC3=CC=CC=C32)CC4=CC=C(C=C4)O)NC(=O)[C@@H](CC5=CC=CC=C5)N)O [CAP-232] + CC1(C)CCC(c2ccc(Cl)cc2)=C(CN2CCN(c3ccc(C(=O)NS(=O)(=O)c4ccc(N[C@H](CCN5CCOCC5)CSc5ccccc5)c(S(=O)(=O)C(F)(F)F)c4)cc3)CC2)C1 [Navitoclax] (partner 0.5 µM)
Summed up: as §1

Compound in experiment [5]: C[C@H]([C@@H](C(=O)N)NC(=O)[C@@H]1CSSC[C@@H](C(=O)N[C@H](C(=O)N[C@@H](C(=O)N[C@H](C(=O)N1)CCCCN)CC2=CNC3=CC=CC=C32)CC4=CC=C(C=C4)O)NC(=O)[C@@H](CC5=CC=CC=C5)N)O [CAP-232] + COc1cc2c(Oc3ccc(NC(=O)C4(C(=O)Nc5ccc(F)cc5)CC4)cc3F)ccnc2cc1OCCCN1CCOCC1 [Foretinib] (partner 0.25 µM)
Summed up: as §1

For HOP-62, the relative viability in experiment [1] (first compound 0.4 µM) came out at 0.347; in experiment [1] (first compound 1.265 µM) it was 0.388; in experiment [1] (first compound 4 µM), 0.387; in experiment [1] (first compound 12.65 µM), 0.406; in experiment [2] (first compound 0.4 µM), 1.03; in experiment [2] (first compound 1.265 µM), 0.745. Moreover, the relative viability in experiment [2] (first compound 4 µM) was 0.756; in experiment [2] (first compound 12.65 µM) it was 0.781; in experiment [3] (first compound 0.4 µM), 0.331; in experiment [3] (first compound 1.265 µM) it was 0.322; in experiment [3] (first compound 4 µM), 0.341; in experiment [3] (first compound 12.65 µM), 0.295. For the same cell line, the relative viability in experiment [4] (first compound 0.4 µM) came out at 0.792; in experiment [4] (first compound 1.265 µM), 0.955; in experiment [4] (first compound 4 µM) it was 1.17; in experiment [4] (first compound 12.65 µM) it was 0.902; in experiment [5] (first compound 0.4 µM), 1.04; in experiment [5] (first compound 1.265 µM), 1.07. Also, the results for the relative viability in experiment [5] (first compound 4 µM) and in experiment [5] (first compound 12.65 µM) were 1.01 and 1.03, respectively.
As for LC-2-ad, the relative viability was determined as 0.518 in experiment [1] (first compound 0.4 µM); 0.478 in experiment [1] (first compound 1.265 µM); 0.439 in experiment [1] (first compound 4 µM); 0.267 in experiment [1] (first compound 12.65 µM); 0.954 in experiment [2] (first compound 0.4 µM); 0.852 in experiment [2] (first compound 1.265 µM). The relative viability in experiment [2] (first compound 4 µM) worked out at 0.756; in experiment [2] (first compound 12.65 µM), 0.559; in experiment [3] (first compound 0.4 µM), 0.278; in experiment [3] (first compound 1.265 µM), 0.269; in experiment [3] (first compound 4 µM), 0.287; in experiment [3] (first compound 12.65 µM) it was 0.228. Further, the relative viability in experiment [4] (first compound 0.4 µM) turned out to be 0.428; in experiment [4] (first compound 1.265 µM), 0.363; in experiment [4] (first compound 4 µM) it was 0.497; in experiment [4] (first compound 12.65 µM), 0.33; in experiment [5] (first compound 0.4 µM) it was 0.875; in experiment [5] (first compound 1.265 µM), 0.878. Moreover, the relative viability in experiment [5] (first compound 4 µM) came out at 0.894; in experiment [5] (first compound 12.65 µM), 0.524.
As for LCLC-97TM1, the relative viability in experiment [1] (first compound 0.4 µM) came to 0.22; in experiment [1] (first compound 1.265 µM), 0.189; in experiment [1] (first compound 4 µM), 0.204; in experiment [1] (first compound 12.65 µM) it was 0.194; in experiment [2] (first compound 0.4 µM), 0.437; in experiment [2] (first compound 1.265 µM), 0.523. The relative viability turned out to be 0.601 in experiment [2] (first compound 4 µM); 0.486 in experiment [2] (first compound 12.65 µM); 0.192 in experiment [3] (first compound 0.4 µM); 0.16 in experiment [3] (first compound 1.265 µM); 0.167 in experiment [3] (first compound 4 µM); 0.183 in experiment [3] (first compound 12.65 µM). In addition, the relative viability was 0.408 in experiment [4] (first compound 0.4 µM); 0.294 in experiment [4] (first compound 1.265 µM); 0.397 in experiment [4] (first compound 4 µM); 0.366 in experiment [4] (first compound 12.65 µM); 0.879 in experiment [5] (first compound 0.4 µM); 0.9 in experiment [5] (first compound 1.265 µM). Further, the relative viability in experiment [5] (first compound 4 µM) was determined as 1.01; in experiment [5] (first compound 12.65 µM) it was 0.925.
